Data reported in ChEMBL document CHEMBL5214930, “Discovery of the First Selective IDO2 Inhibitor As Novel Immunotherapeutic Avenues for Rheumatoid Arthritis” (J Med Chem, 2022).
Calls of active or inactive are those of the source. The calls are words filed in the database; no cut-off is given here.

Key:
HeLa = experiment: Antiproliferative activity against human HeLa cells; format: functional, cell-based
[1] = target: T1, Indoleamine 2,3-dioxygenase 2 (Homo sapiens) (UniProt Q6ZQW0); experiment: Inhibition of recombinant human IDO2 in HeLa cells at […] relative to control; format: cell-based
T1 sequence (whole entry): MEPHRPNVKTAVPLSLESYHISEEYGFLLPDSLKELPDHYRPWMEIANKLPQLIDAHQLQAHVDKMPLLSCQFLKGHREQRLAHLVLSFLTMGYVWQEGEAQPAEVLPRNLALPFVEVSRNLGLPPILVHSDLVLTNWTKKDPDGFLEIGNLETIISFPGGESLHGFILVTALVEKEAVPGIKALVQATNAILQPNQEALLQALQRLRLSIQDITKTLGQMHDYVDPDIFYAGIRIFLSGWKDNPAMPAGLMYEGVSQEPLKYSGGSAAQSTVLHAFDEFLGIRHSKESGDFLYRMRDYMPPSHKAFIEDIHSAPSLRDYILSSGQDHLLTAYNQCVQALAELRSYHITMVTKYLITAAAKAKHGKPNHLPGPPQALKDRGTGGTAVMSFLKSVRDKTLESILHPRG

[2] = target: T1, Indoleamine 2,3-dioxygenase 2 (Homo sapiens); experiment: Inhibition of recombinant human IDO2 in HeLa cells at 100 nM relative to control; format: cell-based
[3] = target: T2, Indoleamine 2,3-dioxygenase 1 (Homo sapiens, UniProt P14902); experiment: Inhibition of recombinant human IDO1 in HeLa cells at 100 nM relative to control; format: cell-based
Target sequence in this assay (P14902 whole entry, looked up): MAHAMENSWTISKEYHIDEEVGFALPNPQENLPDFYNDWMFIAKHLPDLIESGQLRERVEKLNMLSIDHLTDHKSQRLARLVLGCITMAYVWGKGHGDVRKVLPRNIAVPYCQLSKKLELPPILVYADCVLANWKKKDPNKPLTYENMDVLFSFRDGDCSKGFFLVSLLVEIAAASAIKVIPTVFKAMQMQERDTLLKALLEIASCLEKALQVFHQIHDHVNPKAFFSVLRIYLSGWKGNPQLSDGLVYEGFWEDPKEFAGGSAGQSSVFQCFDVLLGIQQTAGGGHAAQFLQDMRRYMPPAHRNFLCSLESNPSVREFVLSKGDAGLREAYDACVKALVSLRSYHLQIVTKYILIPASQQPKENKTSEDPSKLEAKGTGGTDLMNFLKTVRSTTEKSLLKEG

[4] = target: T3, Indoleamine 2,3-dioxygenase 2 (Homo sapiens, UniProt Q6ZQW0); experiment: Inhibition of human IDO2
T3 sequence (Q6ZQW0 whole entry): T1 sequence (whole entry)

[5] = target: T2, Indoleamine 2,3-dioxygenase 1; experiment: Inhibition of human IDO1
Target sequence in this assay (P14902 whole entry): as the sequence (P14902 whole entry, looked up) above

Mus musculus [6] = experiment: Antiinflammatory activity against xylene-induced ear swelling ICR mouse model assessed as swelling rate at 100 mg/kg, IG measured after 1 hr (Activity = 58.21 +/- 12.79%); format: functional
Mus musculus [7] = experiment: Antiinflammatory activity against xylene-induced ear swelling ICR mouse model assessed as swelling inhibition ratio at 100 mg/kg, IG measured after 1 hr; format: functional; design: scale not given: the % may be the effect or the level left
[8] = target: T2, Indoleamine 2,3-dioxygenase 1; experiment: Inhibition of IDO1 (unknown origin)
Target sequence in this assay (P14902 whole entry): as the sequence (P14902 whole entry, looked up) above

[9] = target: T3, Indoleamine 2,3-dioxygenase 2; experiment: Inhibition of IDO2 (unknown origin)
Mus musculus [10] = experiment: Antiarthritic activity against collagen-induced arthritis DBA/1J mouse model assessed as paw swelling at 15 mg/kg, ip administered from day 57 to 74 post CFA injection and measured every 3 days; format: functional, organism-based; conditions: time 17.0 day

Row | EC50 (HeLa) [nM] | inhibition [1] [%] | inhibition [2] [%] | inhibition [3] [%] | SMILES | other results
1 | 835 | 70 | 24 | 12 | O=C(NCc1cn(CCNc2nonc2/C(=N/O)NCc2cccc(Br)c2)nn1)c1ccc[nH]1 | –
2 | 65 | 64 | 16 | 71 | O=C(NCc1cn(CCNc2nonc2/C(=N/O)Nc2cccc(Br)c2)nn1)c1ccccn1 | IC50 [4]: 575 nM; IC50 [5]: 37 nM
3 | 456 | 40 | 6 | 44 | O=C(NCc1cn(CCNc2nonc2/C(=N/O)Nc2ccc(F)c(C(F)(F)F)c2)nn1)c1ccccn1 | –
4 | 73 | 86 | 51 | 75 | O=C(NCc1cn(CCNc2nonc2/C(=N/O)Nc2ccc(F)c(Br)c2)nn1)c1ccc[nH]1 | IC50 [4]: 134 nM; Activity (Mus musculus [6]): 27.84%; Activity (Mus musculus [7]): 52.17%; IC50 [5]: 47 nM
5 | 1790 | 5 | – | 26 | O=C(NCc1cn(CCNc2nonc2/C(=N/O)NCc2ccc(F)c(Br)c2)nn1)c1ccccn1 | –
6 | 129 | 61 | 39 | 72 | O=C(NCc1cn(CCNc2nonc2/C(=N/O)Nc2ccc(F)c(Br)c2)nn1)c1ccccn1 | IC50 [4]: 387 nM; Activity (Mus musculus [6]): 36.71%; Activity (Mus musculus [7]): 36.94%; IC50 [5]: 52 nM
7 | 1210 | 10 | – | 9 | O=C(NCc1cn(CCNc2nonc2/C(=N/O)NCc2ccc(F)cc2)nn1)c1ccc[nH]1 | –
8 | 1600 | 0 | – | 17 | O=C(NCc1cn(CCNc2nonc2/C(=N/O)NCc2ccc(F)c(Br)c2)nn1)c1ccc[nH]1 | –
9 | 2850 | 4 | – | 1 | O=C(NCc1cn(CCNc2nonc2/C(=N/O)NCc2ccccc2Br)nn1)c1ccc[nH]1 | –
10 | – | – | – | – | COc1ccc2[nH]c([S+]([O-])Cc3ncc(C)c(OC)c3C)nc2n1 (configuration not stated) [TENATOPRAZOLE] | IC50 [8]: > 100000 nM; IC50 [9]: 1800 nM
11 | – | – | – | – | C[C@@H]1CCN(C(=O)CC#N)C[C@@H]1N(C)c1ncnc2[nH]ccc12 | Activity (Mus musculus [10]): Active
12 | – | – | – | – | c1ccc(CCc2ccccc2-c2c[nH]nn2)cc1 | IC50 [9]: 51000 nM
13 | 3630 | 23 | – | 5 | O=C(NCc1cn(CCNc2nonc2/C(=N/O)Nc2cc(Br)cc(C(F)(F)F)c2)nn1)c1ccccn1 | –
14 | 1080 | 0 | – | 7 | O=C(NCc1cn(CCNc2nonc2/C(=N/O)NCc2ccc(F)cc2)nn1)c1ccccn1 | –
